Data published in patent US20230158022A1, “METHODS OF USING MYT1 INHIBITORS” (Repare Therapeutics Inc., priority 2020, published 2023).

Legend:
[1] = biological target: T1, recombinant human Myt1 (full length PKMYT1) (Homo sapiens, UniProt Q99640); experiment: Myt1 enzymatic assay (ADP-Glo kinase assay, ATP hydrolysis)
T1 sequence (Q99640 1-499): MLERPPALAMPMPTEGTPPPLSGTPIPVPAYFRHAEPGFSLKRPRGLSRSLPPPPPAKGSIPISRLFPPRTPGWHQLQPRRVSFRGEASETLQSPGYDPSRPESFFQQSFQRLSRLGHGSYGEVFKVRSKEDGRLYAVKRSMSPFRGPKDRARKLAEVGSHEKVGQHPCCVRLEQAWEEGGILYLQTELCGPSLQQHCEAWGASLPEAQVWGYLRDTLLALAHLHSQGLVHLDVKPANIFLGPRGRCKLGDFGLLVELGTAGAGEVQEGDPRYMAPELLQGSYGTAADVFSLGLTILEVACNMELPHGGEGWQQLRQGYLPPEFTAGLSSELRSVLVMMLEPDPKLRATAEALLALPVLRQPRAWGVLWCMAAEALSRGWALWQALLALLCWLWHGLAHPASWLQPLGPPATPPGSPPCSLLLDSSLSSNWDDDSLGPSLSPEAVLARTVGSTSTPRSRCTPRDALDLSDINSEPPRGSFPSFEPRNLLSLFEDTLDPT
Method: Detection of Myt1 kinase activity utilized a recombinant human Myt1 kinase assay measuring the hydrolysis of ATP using a commercially available ADP-Glo Assay (ADP-Glo™ Kinase Assay from Promega, 10 000 assays, #V9102). […] After this, 5 μL of compounds (diluted in reaction buffer to 0.5% DMSO) was added to the microplate and the plate was spun briefly and incubated at 22° C. for 15 minutes. […] Luminescence was read using the Envision (250 ms integration). The IC50 and the % max inhibition were calculated for each inhibitor compound tested.

[2] = tested on: RPE1-hTERT Cas9 TP53−/− parental (WT) and CCNE1-overexpressing clones; experiment: Dose-response proliferation assay (IncuCyte confluency), RPE1-hTERT parental vs CCNE1-overexpressing clones; format: cell-based; conditions: dose titration, FIG. 3C
Method: For dose-response proliferation assays using RPE1-hTERT and FT282-hTERT cell lines, cells were seeded in 96-well plates and dosed with serially diluted Myt1 inhibitor. Cells were imaged once per day using the IncuCyte S3 microscope and percent well confluency was calculated over time. Once cells reached four population doublings the experiment was ended and IC50 curves were plotted for the final time point. Percentage confluency was calculated relative to the cell confluency in the untreated wells.

SMILES	IC50 [1]	sensitivity (cell viability) of CCNE1-overexpressing cells compared with corresponding WT cells [2]
Cc1ccc(O)cc1-n1c(N)c(C(N)=O)c2nc(Cl)ccc21 [Compound 4]	922 nM	–
Cc1ccc(O)c(C)c1-n1c(N)c(C(N)=O)c2cc(Cl)cnc21 (single isomer, unassigned) [Compound 133, S-2-amino-5-chloro-1-(3-hydroxy-2,6-dimethyl-phenyl)pyrrolo[2,3-b]pyridine-3-carboxamide]	–	more sensitive
